Data published in PubChem BioAssay AID1963858 (Molecular Pharmacology Branch, DTP, NCI, 2024).

Test system: HOP-62 multicell spheroids with HUVEC/MSC, viability
Test: Anticancer human tumor HOP-62 cell line growth inhibition [KRAS2];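 also: viability read after a week of compound exposure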;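 as to viability, T/C: 100% = DMSO vehicle-treated spheroids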
Details: for IC50: curve of first compound; for viability, T/C: stronger effect = lower value
Text: Multicellular complex tumor spheroid response to RAS pathway inhibitors in combination with a targeted agents in patient-derived cell lines with oncogenic KRAS variants from multiple cancer types
A high-throughput screen of multi-cell type tumor spheroids was designed to identify active combinations of targeted small molecules and KRAS pathway inhibitors. Complex spheroids include a stromal component modeled by human endothelial cells (HUVEC) and fibroblasts modeled by human mesenchymal stem cells (MSCs). The concentration ranges selected for each drug and investigational agent were based upon clinically achievable concentrations if the clinical Cmax of the agent was known.
Compounds. The drugs and investigational agents: BI-3406 (NSC825286), BAY-293 (NSC824723), batoprotafib (TNO155; NSC825523), sotorasib (AMG 510; NSC818433), MRTX1257 (NSC819558), elimusertib (BAY 1895344; NSC800525), molibresib (GSK525762; NSC774829), temuterkib (LY3214996; NSC803410), venetoclax (NSC766270), alisertib (NSC759677), olaparib (NSC753686), talazoparib (NSC767125), erdafitinib (NSC781556), ipatasertib (NSC767898), cabozantinib (NSC761068), nintedanib (NSC756659), abemaciclib (NSC768073), docetaxel (NSC628503), trametinib (NSC758246), and sapanisertib (NSC764658) were obtained from the National Cancer Institute (NCI) Developmental Therapeutics Program Chemical Repository. The FDA-approved anticancer drug set is available from the Developmental Therapeutics Program. […] The stock solutions were prepared in dimethyl sulfoxide (DMSO, Sigma-Aldrich, St. Louis, MO, cat. D2650) at 800-fold the tested concentration and stored at -70 degrees C prior to their use. All drugs and investigational agents were tested over a range starting from a high concentration at or near the clinical Cmax and decreasing in half-log increments. If the clinical Cmax for an agent had not been determined, the highest concentration tested was 10 microM.
Cell Culture. All cells were maintained in an incubator at 37 degrees C and 5% CO2 with 95% humidity. The PDC lines were cultured according to standard operating procedures established by the NCI PDMR (https://pdmr.cancer.gov/sops/default.htm). Briefly, all PDCs were thawed and cultured in Matrigel-coated flasks prepared with a working solution of 1X Ham's F-12 nutrient mix, without supplementation (Invitrogen, Waltham, MA, cat. 11765054), 100 U/mL penicillin-streptomycin (Invitrogen, cat. 15140122), and 2.5% Matrigel (Corning Inc., Corning, NY, cat. 354248) for the first three passages. All PDCs were cultured in complete DMEM/F-12 media containing advanced DMEM/F-12 (Invitrogen, cat. 12634028), 4.9% defined fetal bovine serum, heat inactivated (HyClone Laboratories Inc., Logan, UT, cat. SH30070.03HI), 389 ng/mL hydrocortisone (Sigma-Aldrich, cat. H4001), 9.7 ng/mL human EGF recombinant protein (Invitrogen, cat. PHG0313), 23.4 microg/mL adenine (Sigma-Aldrich, cat. A2786), 97.3 U/mL penicillin-streptomycin (Invitrogen, cat. 15140122), 1.9 mM L-glutamine (Invitrogen, cat. 25030081), and 9.7 microM Y-27632 dihydrochloride (Tocris Bioscience, Bristol, United Kingdom, cat. 1254). The PDCs were cultured in complete DMEM/F12 media without 9.7 microM Y-27632 dihydrochloride for at least two passages prior to the screen. The established cell line HOP-62 was cultured in RPMI 1640 medium, HEPES (Invitrogen, cat. 22400105) with 10% defined fetal bovine serum (HyClone Laboratories Inc., cat. SH30070.03) and 2 mM L-glutamine (Invitrogen, cat. 25030081). The pooled donor HUVEC were cultured in endothelial cell growth medium 2 (PromoCell, Heidelberg, Germany, cat. C-22011) and the hMSC were cultured in mesenchymal stem cell growth medium 2 (PromoCell, cat. C-28009). For all experiments, HUVEC and hMSC were used at passages </=5, while the malignant cell lines were used at passages </=15. […]

[1] = second compound 0.1 µM, first compound 0.0316 µM
[2] = second compound 0.1 µM, first compound 0.1 µM
[3] = second compound 0.316 µM, first compound 0.0316 µM
[4] = second compound 0.316 µM, first compound 0.1 µM
[5] = second compound 1 µM, first compound 0.0316 µM
[6] = second compound 1 µM, first compound 0.1 µM
[7] = second compound 3.16 µM, first compound 0.0316 µM
[8] = second compound 3.16 µM, first compound 0.1 µM

## Cn1nccc1Nc1nccc(-c2cc3c(s2)C(C)(C)N(CCN2CCOCC2)C3=O)n1 + C=CC(=O)N1CCN(c2nc(OCC3CCCN3C)nc3c2CCN(c2cccc4cccc(C)c24)C3)CC1CC#N
Second compound 0.0316 µM
  IC50: 265 nM
Second compound 0.1 µM
  IC50: 144 nM
Second compound 0.316 µM
  IC50: < 31.6 nM
Second compound 1 µM
  IC50: < 31.6 nM
Second compound 3.16 µM
  IC50: < 31.6 nM
Second compound 0.0316 µM, first compound 0.0316 µM
  viability, T/C: 84.1%
Second compound 0.0316 µM, first compound 0.1 µM
  viability, T/C: 68%
Second compound 0.0316 µM, first compound 0.316 µM
  viability, T/C: 50.4%
Second compound 0.0316 µM, first compound 1 µM
  viability, T/C: 20.3%
Second compound 0.0316 µM, first compound 3.16 µM
  viability, T/C: 22.4%
Second compound 0.0316 µM, first compound 10 µM
  viability, T/C: 22.7%
[1]
  viability, T/C: 58.2%
[2]
  viability, T/C: 53%
Second compound 0.1 µM, first compound 0.316 µM
  viability, T/C: 39.3%
Second compound 0.1 µM, first compound 1 µM
  viability, T/C: 17.1%
Second compound 0.1 µM, first compound 3.16 µM
  viability, T/C: 17.2%
Second compound 0.1 µM, first compound 10 µM
  viability, T/C: 17%
[3]
  viability, T/C: 45.3%
[4]
  viability, T/C: 39.2%
Second compound 0.316 µM, first compound 0.316 µM
  viability, T/C: 18.1%
Second compound 0.316 µM, first compound 1 µM
  viability, T/C: 18%
Second compound 0.316 µM, first compound 3.16 µM
  viability, T/C: 13.6%
Second compound 0.316 µM, first compound 10 µM
  viability, T/C: 16%
[5]
  viability, T/C: 27.7%
[6]
  viability, T/C: 30.3%
Second compound 1 µM, first compound 0.316 µM
  viability, T/C: 13.1%
Second compound 1 µM, first compound 1 µM
  viability, T/C: 12.3%
Second compound 1 µM, first compound 3.16 µM
  viability, T/C: 11.3%
Second compound 1 µM, first compound 10 µM
  viability, T/C: 12.6%
[7]
  viability, T/C: 2.34%
[8]
  viability, T/C: 0.65%
Second compound 3.16 µM, first compound 0.316 µM
  viability, T/C: 1.84%
Second compound 3.16 µM, first compound 1 µM
  viability, T/C: 4.87%
Second compound 3.16 µM, first compound 3.16 µM
  viability, T/C: 4.21%
Second compound 3.16 µM, first compound 10 µM
  viability, T/C: 0.35%

## Cn1ncnc1[C@H]1c2n[nH]c(=O)c3cc(F)cc(c23)N[C@@H]1c1ccc(F)cc1 + COc1cc2nc(C)nc(NC(C)c3cc(N)cc(C(F)(F)F)c3)c2cc1OC1CCOC1
Second compound 0.1 µM
  IC50: > 100 nM
Second compound 0.316 µM
  IC50: > 100 nM
Second compound 1 µM
  IC50: > 100 nM
Second compound 3.16 µM
  IC50: 74.2 nM
Second compound 10 µM
  IC50: 2.96 nM
Second compound 0.1 µM, first compound 0.000316 µM
  viability, T/C: 95.1%
Second compound 0.1 µM, first compound 0.001 µM
  viability, T/C: 102%
Second compound 0.1 µM, first compound 0.00316 µM
  viability, T/C: 94.3%
Second compound 0.1 µM, first compound 0.01 µM
  viability, T/C: 87%
[1]
  viability, T/C: 97.6%
[2]
  viability, T/C: 70.4%
Second compound 0.316 µM, first compound 0.000316 µM
  viability, T/C: 104%
Second compound 0.316 µM, first compound 0.001 µM
  viability, T/C: 91.7%
Second compound 0.316 µM, first compound 0.00316 µM
  viability, T/C: 86.8%
Second compound 0.316 µM, first compound 0.01 µM
  viability, T/C: 94.2%
[3]
  viability, T/C: 83.5%
[4]
  viability, T/C: 78.8%
Second compound 1 µM, first compound 0.000316 µM
  viability, T/C: 96%
Second compound 1 µM, first compound 0.001 µM
  viability, T/C: 89.5%
Second compound 1 µM, first compound 0.00316 µM
  viability, T/C: 69.9%
Second compound 1 µM, first compound 0.01 µM
  viability, T/C: 66.6%
[5]
  viability, T/C: 66%
[6]
  viability, T/C: 57.1%
Second compound 3.16 µM, first compound 0.000316 µM
  viability, T/C: 75.7%
Second compound 3.16 µM, first compound 0.001 µM
  viability, T/C: 85.6%
Second compound 3.16 µM, first compound 0.00316 µM
  viability, T/C: 72.8%
Second compound 3.16 µM, first compound 0.01 µM
  viability, T/C: 58.1%
[7]
  viability, T/C: 48.5%
[8]
  viability, T/C: 51%
Second compound 10 µM, first compound 0.000316 µM
  viability, T/C: 58.6%
Second compound 10 µM, first compound 0.001 µM
  viability, T/C: 59%
Second compound 10 µM, first compound 0.00316 µM
  viability, T/C: 50.8%
Second compound 10 µM, first compound 0.01 µM
  viability, T/C: 40.8%
Second compound 10 µM, first compound 0.0316 µM
  viability, T/C: 42.8%
Second compound 10 µM, first compound 0.1 µM
  viability, T/C: 41.6%
